Patent US7871999B2, “Substituted thiazoles and their use for producing drugs” (Gruenenthal GmbH, priority 2005, dated 2011)
Counter-ions that a name gives are not always drawn.

How the values were obtained:
mGluR5 receptor [1] = biological target: T1, mGluR5 receptor (Homo sapiens, UniProt P41594); experiment: Functional Ca^2+ influx assay in the mGluR5 receptor assay (CHO-hmGluR5 cells, DHPG 10 μM); format: cell-based; conditions: Ki=IC50/(1+(AGconc./EC50))
T1 construct: host or cells: CHO cells (CHO-hmGluR5), incubated overnight with doxycycline
Source text: II. Method for Determining Ca^2+ Influx in the mGluR5 Receptor Assay
[…] According to this assay, intracellular Ca^2+ release is quantified after activation of the mGluR5 receptor with the assistance of a Ca^2+-sensitive dye (type Fluo-4, Molecular Probes Europe BV, Leiden, Netherlands) in a FlexStation (Molecular Devices, Sunnyvale, USA).
Description of the Functional Ca^2+ Influx Assay
20,000 CHO-hmGluR5 cells/well (Euroscreen, Gosselies, Belgium) are pipetted out into 96 well plates (BD Biosciences, Heidelberg, Germany, Ref. 356640, clear bottom, 96 well, poly-D-lysine) and incubated overnight in HBSS buffer (Gibco No. 14025-050) with the following additives: 10% FCS (GIBCO, 10270-106) and doxycycline (BD Biosciences Clontech 631311 600 ng/ml).
For the purpose of functional investigation, the cells were loaded with 2 μM Fluo-4 and 0.01 vol. % Pluronic F127 (Molecular Probes Europe BV, Leiden, Netherlands) in HBSS buffer (Hank's buffered saline solution, Gibco Invitrogen GmbH, Karlsruhe, Germany) with Probenicid (Sigma P8761, 0.69 mg/ml) for 30 min at 37° C.
The cells are then washed 3 times with washing buffer (HBSS buffer, Gibco No. 14025-050, with Probenicid (Sigma P8761, 0.69 mg/ml) and then resuspended with the same buffer to make up to 100 μl. After 15 min, the plates are transferred for determination of Ca^2+ measurements in the presence of DHPG ((S)-3,5-dihydroxyphenylglycine, Tocris Biotrend Chemikalien GmbH, Cologne, Germany, final DHPG concentration: 10 μM) and in the presence or absence of test substances into a FLuorometric Imaging Plate Reader (FLIPR, Molecular Devices, Sunnyvale, Calif.).
Ca^2+-dependent fluorescence is measured before and after addition of test substances. Quantification proceeds by measuring the highest fluorescence intensity over time.
After recording a fluorescence baseline for 10 s, 50 μl of test substance solution (various test substance concentrations in HBSS buffer with 1% DMSO and 0.02% Tween 20, Sigma) are added and the fluorescence signal is measured for 6 min. Then, 50 μl of DHPG solution ((S)-3,5-dihydroxyphenylglycine, Tocris Biotrend Chemikalien GmbH, Cologne, Germany, final DHPG concentration: 10 μM) are added and Ca^2+ influx is simultaneously measured for 60 s. The final DMSO concentration amounts to 0.25% and the final Tween 20 content amounts to 0.005%. The data are analysed with Microsoft Excel and GraphPad Prism. The dose-response curves are calculated with non-linear regression and IC50 values are determined. Each data point is determined in triplicate and IC50 values are averaged from a minimum of 2 independent measurements.
Ki values are calculated using the following formula: Ki=IC50/(1+(AGconc./EC50)).
AGconc.=10 μM; EC50 corresponds to the DHPG concentration which is necessary for the semimaximal influx of Ca^2+.

mGluR5 receptor [2] = biological target: T2, mGluR5 receptor (Sus scrofa, UniProt I3LUI7); experiment: Inhibition of [^3H]-MPEP binding in the mGluR5 receptor binding assay (pig brain homogenate); conditions: 5 nM [^3H]-MPEP; for inhibition at 1 µM: 1 μM test compound; for inhibition at 10 µM: 10 μM test compound
T2 construct: pig brain hemispheres without medulla, cerebellum and pons ... differential centrifugation at 900×g and 40,000×g
Protocol: I. Method for Determining the Inhibition of [^3H]-MPEP Binding in the mGluR5 Receptor Binding Assay […]
The batches are then filtered with the assistance of a Brandel Cell Harvester (Brandel, Robotic 9600 model) on Unifilter plates with glass filter mats (Perkin Elmer, order number 6005177) and then washed 3 times with buffer (as above) using 250 μl per sample. The filter plates are then dried for 60 min at 55° C. Then 30 μl of Ultima Gold™ scintillating material (Packard BioScience, order number 6013159) is added per well and after 3 hours the samples are measured using the β counter (Microbeta, Perkin Elmer). Nonspecific binding is determined by the addition of 10 μM MPEP (Tocris, order number 1212).

T1 sequence (P41594 21-1212): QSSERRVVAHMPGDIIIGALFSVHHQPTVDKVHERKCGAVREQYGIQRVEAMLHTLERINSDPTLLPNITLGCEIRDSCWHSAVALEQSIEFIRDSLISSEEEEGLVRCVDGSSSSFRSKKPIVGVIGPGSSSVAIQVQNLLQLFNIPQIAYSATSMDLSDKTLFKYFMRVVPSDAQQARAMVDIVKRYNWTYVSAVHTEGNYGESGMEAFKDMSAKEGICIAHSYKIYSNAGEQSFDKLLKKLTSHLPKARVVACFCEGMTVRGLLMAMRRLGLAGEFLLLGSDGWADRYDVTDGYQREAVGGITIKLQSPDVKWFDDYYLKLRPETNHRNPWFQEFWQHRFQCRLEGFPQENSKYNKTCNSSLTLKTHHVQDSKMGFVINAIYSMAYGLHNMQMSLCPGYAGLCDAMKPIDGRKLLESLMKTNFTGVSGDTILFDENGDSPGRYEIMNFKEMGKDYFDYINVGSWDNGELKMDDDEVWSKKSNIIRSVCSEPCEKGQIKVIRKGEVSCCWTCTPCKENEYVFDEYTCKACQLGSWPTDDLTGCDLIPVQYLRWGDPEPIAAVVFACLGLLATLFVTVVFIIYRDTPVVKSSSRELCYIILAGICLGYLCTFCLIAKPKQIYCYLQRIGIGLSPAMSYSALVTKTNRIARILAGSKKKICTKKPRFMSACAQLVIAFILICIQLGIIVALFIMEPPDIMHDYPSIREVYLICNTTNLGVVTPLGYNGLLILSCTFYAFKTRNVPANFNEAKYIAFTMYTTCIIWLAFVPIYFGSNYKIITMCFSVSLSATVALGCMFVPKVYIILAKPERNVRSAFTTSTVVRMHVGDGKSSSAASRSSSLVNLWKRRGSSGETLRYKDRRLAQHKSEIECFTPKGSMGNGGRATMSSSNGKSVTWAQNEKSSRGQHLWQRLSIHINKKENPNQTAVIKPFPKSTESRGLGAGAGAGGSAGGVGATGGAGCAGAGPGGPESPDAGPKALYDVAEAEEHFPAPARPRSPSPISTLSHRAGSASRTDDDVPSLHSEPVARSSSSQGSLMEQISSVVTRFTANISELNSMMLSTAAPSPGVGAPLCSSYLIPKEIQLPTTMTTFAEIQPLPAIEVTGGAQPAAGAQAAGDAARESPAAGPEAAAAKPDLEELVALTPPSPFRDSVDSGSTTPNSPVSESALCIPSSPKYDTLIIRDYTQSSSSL
T2 sequence (I3LUI7 1-1212): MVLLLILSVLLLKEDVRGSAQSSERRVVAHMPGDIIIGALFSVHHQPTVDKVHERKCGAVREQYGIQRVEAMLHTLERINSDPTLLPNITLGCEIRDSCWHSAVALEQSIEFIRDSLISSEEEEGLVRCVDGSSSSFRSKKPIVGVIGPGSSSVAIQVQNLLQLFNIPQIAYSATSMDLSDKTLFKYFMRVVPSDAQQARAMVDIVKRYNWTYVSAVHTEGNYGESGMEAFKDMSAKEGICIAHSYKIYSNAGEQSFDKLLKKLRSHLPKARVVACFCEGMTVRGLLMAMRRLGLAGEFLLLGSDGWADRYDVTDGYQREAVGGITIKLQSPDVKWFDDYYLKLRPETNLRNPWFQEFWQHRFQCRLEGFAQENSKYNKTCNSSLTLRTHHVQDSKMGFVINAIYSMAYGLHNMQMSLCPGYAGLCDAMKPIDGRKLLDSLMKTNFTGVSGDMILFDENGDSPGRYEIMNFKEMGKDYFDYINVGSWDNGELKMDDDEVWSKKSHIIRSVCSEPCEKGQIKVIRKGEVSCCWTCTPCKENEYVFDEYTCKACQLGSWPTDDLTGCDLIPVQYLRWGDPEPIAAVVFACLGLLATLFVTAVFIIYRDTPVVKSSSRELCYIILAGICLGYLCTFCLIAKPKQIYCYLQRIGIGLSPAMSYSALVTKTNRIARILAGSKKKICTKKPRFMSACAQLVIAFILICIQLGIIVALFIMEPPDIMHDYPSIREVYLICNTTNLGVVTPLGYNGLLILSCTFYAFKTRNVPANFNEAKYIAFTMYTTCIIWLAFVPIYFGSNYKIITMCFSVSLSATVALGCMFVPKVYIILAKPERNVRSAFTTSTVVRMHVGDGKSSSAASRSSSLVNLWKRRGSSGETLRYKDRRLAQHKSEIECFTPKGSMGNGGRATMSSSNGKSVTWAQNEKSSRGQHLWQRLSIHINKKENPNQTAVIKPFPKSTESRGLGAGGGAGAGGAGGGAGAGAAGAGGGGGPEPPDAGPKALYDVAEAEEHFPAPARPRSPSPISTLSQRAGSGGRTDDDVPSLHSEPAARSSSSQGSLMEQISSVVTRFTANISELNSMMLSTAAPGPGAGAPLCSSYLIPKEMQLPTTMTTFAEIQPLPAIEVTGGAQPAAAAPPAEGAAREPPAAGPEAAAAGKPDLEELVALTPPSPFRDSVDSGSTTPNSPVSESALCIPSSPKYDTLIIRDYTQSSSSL

| SMILES | IC50 (mGluR5 receptor [2]) | inhibition at 1 µM (mGluR5 receptor [2]) | also measured |
| --- | --- | --- | --- |
| CN(CCN(C)c1nccs1)C(=O)C#Cc1cccc(C#N)c1 [Example 13, N-methyl-N-(2-(methyl(thiazol-2-yl)amino)ethyl)-3-(3-cyanophenyl)-propiolamide] | 87 nM |  | Ki (mGluR5 receptor [1]): 20.8 nM |
| O=C(C#Cc1cccc(Cl)c1)NC1CCCN(c2nccs2)C1 (stereo not shown) [Example 32, 3-(3-chlorophenyl)-N-(1-(thiazol-2-yl)piperidin-3-yl)-propiolamide] | 5 nM |  | Ki (mGluR5 receptor [1]): 4 nM |
| O=C(C#Cc1ccccc1)NC1CCCN(c2nccs2)C1 (stereo not shown) [Example 15, 3-Phenyl-N-(1-(thiazol-2-yl)piperidin-3-yl)propiolamide] | 86 nM |  | Ki (mGluR5 receptor [1]): 14.4 nM |
| Cc1cnc(N2CCC(NC(=O)C#Cc3cccs3)C2)s1 (stereo not shown) [Example 113, N-(1-(5-methylthiazol-2-yl)pyrrolidin-3-yl)-3-(thiophen-2-yl)propiolamide] |  |  | inhibition at 10 µM (mGluR5 receptor [2]): 22% |
| Cc1ccc(C#CC(=O)NC2CCN(c3nc(C(C)(C)C)cs3)C2)cc1 (stereo not shown) [Example 56, N-(1-(4-tert.-butylthiazol-2-yl)pyrrolidin-3-yl)-3-p-tolylpropiolamide] |  | 37% |  |
| CN(CCNC(=O)C#Cc1cccc(Cl)c1)c1nc(Cl)cs1 [Example 37, 3-(3-chlorophenyl)-N-(2-((4-chlorothiazol-2-yl)(methyl)amino)ethyl)propiolamide] | 9.5 nM |  |  |
| CN(CCN(C)c1nccs1)C(=O)C#Cc1ccccn1 [Example 17, N-Methyl-N-(2-(methyl(thiazol-2-yl)amino)ethyl)-3-(pyrid-2-yl)-propiolamide] | 1250 nM |  |  |
| CN(c1nccs1)C1CCCN(C(=O)C#Cc2ccccc2)C1 (stereo not shown) [Example 28, 3-(methyl-(thiazol-2-yl)-amino)-1-(3-phenylpropioloyl)piperidine] | 1150 nM |  |  |
| CN(CCNC(=O)C#Cc1cccc(Cl)c1)c1ncc(C#N)s1 [Example 42, 3-(3-chlorophenyl)-N-(2-((5-cyanothiazol-2-yl)(methyl)amino)ethyl)propiolamide] | 220 nM |  |  |
| CN(C(=O)C#Cc1ccccc1)C1CCCCC1N(C)c1nccs1 (stereo not shown) [Example 12, N-Methyl-N-(2-(methyl(thiazol-2-yl)amino)cyclohexyl)-3-phenylpropiolamide] |  |  | inhibition at 10 µM (mGluR5 receptor [2]): 41% |
| Cc1cnc(N(C)CCNC(=O)C#Cc2cccc(Cl)c2)s1 [Example 30, 3-(3-Chlorophenyl)-N-(2-(methyl(5-methylthiazol-2-yl)amino)ethyl)propiolamide] | 77 nM |  |  |
| Cc1nc(N2CCC(NC(=O)C#Cc3ccccc3)C2)sc1C (stereo not shown) [Example 51, N-(1-(4,5-dimethylthiazol-2-yl)pyrrolidin-3-yl)-3-phenylpropiolamide] |  | 48% |  |
| CN(c1ncc(F)s1)C1CCN(C(=O)C#Cc2cccc(Cl)c2)C1 (stereo not shown) [Example 44, 1-(3-(3-Chlorophenyl)propioloyl)-3-(methyl(5-fluorothiazol-2-yl)amino)pyrrolidine] | 71 nM |  |  |
| O=C(C#Cc1ccccc1)N1CCCN(c2nccs2)CC1 [Example 3, 1-Thiazol-2-yl-4-(3-phenylpropioloyl)-1,4-diazepane] | 590 nM |  |  |
| O=C(C#Cc1ccccc1)NCCNc1nccs1 [Example 5, N-(2-((thiazol-2-yl)amino)ethyl)-3-phenylpropiolamide] | 1580 nM |  |  |
| COC(=O)c1cnc(N(C)CCNC(=O)C#Cc2cccc(Cl)c2)s1 [Example 34, methyl 2-((2-(3-(3-chlorophenyl)-propiolamido)ethyl)(methyl)amino)thiazole-5-carboxylate] | 20 nM |  |  |
| O=C(C#Cc1ccccc1)NC1CN(c2nccs2)C1 [Example 8, 3-Phenyl-N-(1-(thiazol-2-yl)azetidin-3-yl)propiolamide] | 10200 nM |  |  |
| CN(C(=O)C#Cc1ccccc1)C1CCN(c2nccs2)C1 (stereo not shown) [Example 2, N-methyl-3-phenyl-N-(1-(thiazol-2-yl)pyrrolidin-3-yl)propiolamide hydrochloride] | 1320 nM |  |  |
| CN(C(=O)C#Cc1cccc(Cl)c1)C1CN(c2nccs2)C1 [Example 40, 3-(3-chlorophenyl)-N-methyl-N-(1-(thiazol-2-yl)azetidin-3-yl)-propiolamide] | 17 nM |  |  |
| Cc1cccc(C#CC(=O)NCCN(C)c2nccs2)c1 [Example 21, N-(2-(methyl(thiazol-2-yl)amino)ethyl)-3-(tol-3-yl)-propiolamide] | 8.3 nM |  |  |
| CN(CCNc1nccs1)C(=O)C#Cc1ccccc1 [Example 10, N-methyl-N-(2-(thiazol-2-yl)amino)ethyl-3-phenylpropiolamide] | 1860 nM |  |  |
| COc1ccc(C#CC(=O)NC2CCN(c3nc(C(C)(C)C)cs3)C2)cc1 (stereo not shown) [Example 55, N-(1-(4-tert.-butylthiazol-2-yl)pyrrolidin-3-yl)-3-(4-methoxyphenyl)propiolamide] |  | 26% |  |
| CN(CCNC(=O)C#Cc1cccc(Cl)c1)c1ncc(Cl)s1 [Example 38, 3-(3-chlorophenyl)-N-(2-((5-chlorothiazol-2-yl)(methyl)amino)ethyl)-propiolamide] | 160 nM |  |  |

More lines, main results first:

| IC50 (mGluR5 receptor [2]) | inhibition at 1 µM (mGluR5 receptor [2]) | SMILES | also measured |
| --- | --- | --- | --- |
|  | 56% | Cc1cnc(N2CCC(NC(=O)C#Cc3ccccc3)C2)s1 (stereo not shown) [Example 76, N-(1-(5-methylthiazol-2-yl)pyrrolidin-3-yl)-3-phenylpropiolamide] |  |
| 16 nM |  | CN(CCNC(=O)C#Cc1cccc(Cl)c1)c1ncc(F)s1 [Example 126, 3-(3-Chlorophenyl)-N-(2-((5-fluorothiazol-2-yl)(methyl)amino)ethyl)propiolamide] |  |
|  | 76% | Cc1csc(N2CCC(NC(=O)C#Cc3cccc(F)c3)C2)n1 (stereo not shown) [Example 67, 3-(3-fluorophenyl)-N-(1-(4-methylthiazol-2-yl)pyrrolidin-3-yl)propiolamide] |  |
|  | 23% | Cc1cnc(N2CCC(NC(=O)C#Cc3cccc(C(F)(F)F)c3)C2)s1 (stereo not shown) [Example 87, N-(1-(5-methylthiazol-2-yl)pyrrolidin-3-yl)-3-(3-(trifluoromethyl)phenyl)-propiolamide] |  |
|  | 81% | Cc1cccc(C#CC(=O)NC2CCN(c3nc(C)c(C)s3)C2)c1 (stereo not shown) [Example 82, N-(1-(4,5-dimethylthiazol-2-yl)pyrrolidin-3-yl)-3-m-tolylpropiolamide] |  |
|  | 59% | Cc1csc(N2CCC(NC(=O)C#Cc3cccc(C(F)(F)F)c3)C2)n1 (stereo not shown) [Example 71, N-(1-(4-methylthiazol-2-yl)pyrrolidin-3-yl)-3-(3-(trifluoromethyl)phenyl)-propiolamide] |  |
|  | 20% | CC(C)(C)c1csc(N2CCC(NC(=O)C#Cc3cccnc3)C2)n1 (stereo not shown) [Example 123, N-(1-(4-tert.-butylthiazol-2-yl)pyrrolidin-3-yl)-3-(pyridin-3-yl)propiolamide] |  |
|  | 24% | Cc1cnc(N2CCC(NC(=O)C#Cc3cccc(Cl)c3)C2)s1 (stereo not shown) [Example 112, 3-(3-chlorophenyl)-N-(1-(5-methylthiazol-2-yl)pyrrolidin-3-yl)propiolamide] |  |
|  | 26% | CC(C)(C)c1csc(N2CCC(NC(=O)C#Cc3ccc(F)cc3)C2)n1 (stereo not shown) [Example 57, N-(1-(4-tert.-butylthiazol-2-yl)pyrrolidin-3-yl)-3-(4-fluorophenyl)propiolamide] |  |
|  | 57% | Cc1cnc(N2CCC(NC(=O)C#Cc3cccc(F)c3)C2)s1 (stereo not shown) [Example 81, 3-(3-fluorophenyl)-N-(1-(5-methylthiazol-2-yl)pyrrolidin-3-yl)propiolamide] |  |
|  | 30% | CC(C)(C)c1csc(N2CCC(NC(=O)C#Cc3ccccc3)C2)n1 (stereo not shown) [Example 60, N-(1-(4-tert.-butylthiazol-2-yl)pyrrolidin-3-yl)-3-phenylpropiolamide] |  |
